pIC50: −log10 of the molar value.
Columns and labels:
Type in all cases: biochemical
[1] = molecular target: T1, USP21 (Homo sapiens, UniProt Q9UK80); assay: MALDI-TOF DUB activity assay with diubiquitin; […] inhibition at […]
T1 construct: recombinant (recUSP21)
T1 sequence (Q9UK80 1-565): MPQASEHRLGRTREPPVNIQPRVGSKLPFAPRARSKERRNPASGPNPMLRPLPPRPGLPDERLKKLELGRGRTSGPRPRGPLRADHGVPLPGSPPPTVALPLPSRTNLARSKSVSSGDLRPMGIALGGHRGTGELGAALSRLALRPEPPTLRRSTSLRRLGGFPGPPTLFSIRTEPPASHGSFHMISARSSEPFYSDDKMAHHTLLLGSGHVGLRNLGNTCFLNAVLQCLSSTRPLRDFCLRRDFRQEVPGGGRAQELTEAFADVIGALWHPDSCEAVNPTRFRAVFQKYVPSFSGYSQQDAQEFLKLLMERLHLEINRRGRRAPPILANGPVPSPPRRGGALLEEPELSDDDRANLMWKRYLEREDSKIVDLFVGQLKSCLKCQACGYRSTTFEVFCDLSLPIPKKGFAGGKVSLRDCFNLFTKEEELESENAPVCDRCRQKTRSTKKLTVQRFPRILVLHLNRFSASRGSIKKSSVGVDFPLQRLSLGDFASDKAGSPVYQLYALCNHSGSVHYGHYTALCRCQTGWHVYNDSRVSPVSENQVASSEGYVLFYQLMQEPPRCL

[2] = molecular target: T2, USP16 (Homo sapiens, UniProt Q9Y5T5); assay: MALDI-TOF DUB activity assay with diubiquitin, single dose […]
T2 construct: recombinant
T2 sequence (Q9Y5T5 whole entry): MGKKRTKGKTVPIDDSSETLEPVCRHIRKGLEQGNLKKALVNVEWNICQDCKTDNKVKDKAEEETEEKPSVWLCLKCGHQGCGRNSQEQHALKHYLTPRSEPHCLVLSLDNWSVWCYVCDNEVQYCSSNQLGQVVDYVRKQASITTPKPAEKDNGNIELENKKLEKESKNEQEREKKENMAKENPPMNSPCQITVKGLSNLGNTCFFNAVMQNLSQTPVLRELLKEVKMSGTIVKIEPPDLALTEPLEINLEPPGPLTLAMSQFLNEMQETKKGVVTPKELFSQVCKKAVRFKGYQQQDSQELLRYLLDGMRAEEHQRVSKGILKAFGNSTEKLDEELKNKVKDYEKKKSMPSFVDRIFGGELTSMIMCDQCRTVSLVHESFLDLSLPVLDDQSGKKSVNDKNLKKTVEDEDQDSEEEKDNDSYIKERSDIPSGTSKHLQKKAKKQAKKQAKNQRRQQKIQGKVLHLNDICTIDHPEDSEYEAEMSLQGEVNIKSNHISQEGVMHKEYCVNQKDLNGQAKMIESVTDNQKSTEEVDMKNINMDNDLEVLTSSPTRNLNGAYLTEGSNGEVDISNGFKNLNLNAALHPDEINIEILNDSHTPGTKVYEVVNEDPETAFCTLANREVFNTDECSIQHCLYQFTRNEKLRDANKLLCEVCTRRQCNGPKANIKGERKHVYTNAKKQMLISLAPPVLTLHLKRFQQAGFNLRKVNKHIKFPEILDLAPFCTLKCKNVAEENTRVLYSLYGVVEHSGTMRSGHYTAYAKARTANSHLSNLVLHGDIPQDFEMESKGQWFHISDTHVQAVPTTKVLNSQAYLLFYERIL

[3] = molecular target: T3, USP36 (Homo sapiens, UniProt Q9P275); assay: as above
T3 construct: recombinant
T3 sequence (Q9P275 1-1123): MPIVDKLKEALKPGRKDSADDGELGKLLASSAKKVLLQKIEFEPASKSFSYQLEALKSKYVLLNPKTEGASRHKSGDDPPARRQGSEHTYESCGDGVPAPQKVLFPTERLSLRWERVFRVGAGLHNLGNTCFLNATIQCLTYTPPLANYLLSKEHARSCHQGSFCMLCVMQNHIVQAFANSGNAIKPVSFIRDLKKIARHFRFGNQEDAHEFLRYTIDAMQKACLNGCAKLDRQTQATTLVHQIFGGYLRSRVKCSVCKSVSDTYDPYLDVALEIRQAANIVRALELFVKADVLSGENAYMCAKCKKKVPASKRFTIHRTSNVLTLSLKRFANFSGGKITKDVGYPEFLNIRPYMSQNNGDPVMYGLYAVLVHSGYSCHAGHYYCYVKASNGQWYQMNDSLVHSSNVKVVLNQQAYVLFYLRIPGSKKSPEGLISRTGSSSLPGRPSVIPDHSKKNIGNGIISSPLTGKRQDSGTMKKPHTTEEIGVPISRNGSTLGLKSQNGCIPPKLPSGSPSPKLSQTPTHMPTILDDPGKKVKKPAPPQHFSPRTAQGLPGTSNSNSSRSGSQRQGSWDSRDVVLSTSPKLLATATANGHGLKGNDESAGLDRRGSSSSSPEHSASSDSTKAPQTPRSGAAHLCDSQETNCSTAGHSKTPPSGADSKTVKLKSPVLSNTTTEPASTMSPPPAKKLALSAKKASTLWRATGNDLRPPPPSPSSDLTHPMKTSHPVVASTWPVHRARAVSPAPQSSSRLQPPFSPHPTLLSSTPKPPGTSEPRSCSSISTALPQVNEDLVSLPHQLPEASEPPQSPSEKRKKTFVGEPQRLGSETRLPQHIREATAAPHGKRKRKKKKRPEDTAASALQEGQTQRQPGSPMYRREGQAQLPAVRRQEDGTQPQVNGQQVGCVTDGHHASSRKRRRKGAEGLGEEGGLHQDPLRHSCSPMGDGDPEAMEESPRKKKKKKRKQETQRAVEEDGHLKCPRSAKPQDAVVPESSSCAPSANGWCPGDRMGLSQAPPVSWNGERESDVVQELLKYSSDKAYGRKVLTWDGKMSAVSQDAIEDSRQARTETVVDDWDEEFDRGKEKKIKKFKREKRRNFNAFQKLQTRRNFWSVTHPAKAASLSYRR

[4] = molecular target: T4, USP27X (Homo sapiens, UniProt A6NNY8); assay: as above
T4 construct: recombinant (recUSP27)
T4 sequence (A6NNY8 1-438): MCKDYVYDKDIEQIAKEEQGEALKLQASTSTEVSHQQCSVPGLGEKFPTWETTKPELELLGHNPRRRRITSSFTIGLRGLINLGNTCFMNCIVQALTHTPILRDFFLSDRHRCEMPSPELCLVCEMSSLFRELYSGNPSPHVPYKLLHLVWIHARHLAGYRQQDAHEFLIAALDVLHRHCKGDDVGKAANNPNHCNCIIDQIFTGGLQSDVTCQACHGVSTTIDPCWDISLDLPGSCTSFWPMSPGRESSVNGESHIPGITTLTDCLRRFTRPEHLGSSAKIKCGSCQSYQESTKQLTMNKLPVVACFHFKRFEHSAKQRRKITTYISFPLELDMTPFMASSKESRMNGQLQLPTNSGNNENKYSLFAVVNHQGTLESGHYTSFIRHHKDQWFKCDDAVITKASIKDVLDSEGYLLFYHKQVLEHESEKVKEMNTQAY

C=C(C)[C@@H]1CC[C@]2(C(=O)O)CC[C@]3(C)[C@H](CC[C@@H]4[C@@]5(C)CC[C@H](O)C(C)(C)[C@@H]5CC[C@]43C)[C@@H]12 [BA, betulinic acid]
pIC50 [1]: 5.21 | inhibition at 10 µM [2]: 40% | inhibition at 10 µM [3]: 40% | inhibition at 10 µM [4]: 60%

— publication PMC6120934, “Inhibiting Multiple Deubiquitinases to Reduce Androgen Receptor Expression in Prostate Cancer Cells” (Scientific Reports, 2018)
